Tests used:
Format in all cases: in vivo
[1] = test system: Brown Dog Tick Adults (Rhipicephalus sanguineus); assay: Brown dog tick adults glass vial contact assay; conditions: 100 ppm; 3 DAT (days after treatment)
Method: (§1) If not otherwise specified, the tests were conducted as glass vial contact assays. Glass vials (20 ml scintillation vials) were used. Treatment solutions were mixed with technical grade chemicals diluted in acetone. Treatment solutions needed for the assays included generally 1 and 10 ppm (0.01 and 0.1 μg/cm^2, respectively), but optionally also 100 and/or 1000 ppm for first tier vials. As commercial standard, alphacypermethrin was run at 1 ppm. As solvent control, acetone was used for the assay. Treatment solution was pipetted into the bottom of each vial. Each vial was turned on its side and placed onto a commercial grade hot dog roller without applying heat. The uncapped vials were allowed to roll to allow for the acetone treatment to vent off. After drying, the vials were placed into the compartmented vial shipping boxes. The workstation was prepared by chilling the table and plastic Petri dishes with the inside wall coated with Fluon. A weigh boat of 10% sugar water saturated cotton dental pellets was also prepared. The animal pests were collected into a tube with a rechargeable insect vacuum. The tube of animal pests was placed in a laboratory refrigerator until the animal pests were incapacitated. […]
Treatment solutions were mixed with test compound diluted in acetone at concentrations of 10 and 100 ppm. […] Ticks were evaluated by rolling the vials on a preheated hotdog roller. […]

[2] = test system: Western Flower Thrips (Frankliniella occidentalis); assay: Western flower thrips glass vial and leaf disc test; conditions: 300 ppm; larvae or adults; 2 DAT
Method: Serial dilutions of each technical grade AI were made in pure acetone. 0.5 ml of the treatment solution was deposited into the bottom of a glass vial (scintillation vial). The cap was screwed back onto the vial and inverted for about five seconds. The cap was subsequently removed and the vial laid on its side and rolled constantly, on a hot dog roller, until all the acetone had flashed off and the inner surface of the vial was dry. Cotton leave discs were also dipped simultaneously into the treatment solutions and allowed to dry. After the vials were dried, the leave discs were placed into the vials to serve as a food/water source for the thrips. Each treatment was replicated 5-fold. Western flower thrips were aspirated into the vials, approximately 5 larvae or adults/vial. Following treatment application the vials were held in a holding room under fluorescent light and constant 26° C. Thrips mortality was assessed at 2 DAT (days after treatment), counting all thrips both dead and alive.

[3] = test system: Acrobat Ant Workers (Crematogaster sp.); assay: Acrobat ant workers glass vial contact assay; conditions: 100 ppm; 48 h after treatment
Method: as §1, with “incapacitated. The animal pests were emptied into chilled Petri dish. A small cotton dental pellet was soaked in water or in 10 wt % sugar water, whereas the excess solution was gently squeezed out.” for “incapacitated.”

Measured: mortality in comparison with untreated controls

Cc1cc(C2=NOC(c3cc(Cl)cc(Cl)c3)(C(F)(F)F)C2)ccc1C=NNC(=O)NCC(F)(F)F (stereo not drawn) [Compound 1-48]
at least 75%: [1] | [2] | [3]

— patent US8722673B2, “Imine compounds for combating invertebrate pests” (BASF SE, priority 2008, dated 2014)
